We go through one compound from the NIST ThermoML archive (doi:10.1007/s10765-014-1740-z).

The structures appear in SMILES notation. Numbers after ± are expanded uncertainties.

For the data set the following is noted: Crystal; visual observation.

Regarding `O=c1cc(-c2ccccc2)oc2cc(O)c(O)c(O)c12` [baicalein], the Triple point temperature came to 537 ± 10 K.
